Measurements published in paper PMC6829886, “Inhibition of Non-Small Cell Lung Cancer Cells by Oxy210, an Oxysterol-Derivative that Antagonizes TGFβ and Hedgehog Signaling” (Cells, 2019).

What was measured:
[1] = tested on: Hh pathway target genes Gli1 and Hip in Sufu-/- MEFs; experiment: Hh target gene expression in Sufu-/- mouse embryonic fibroblasts; format: cell-based; settings: 72 h
Method: (§1) Total RNA was extracted with the RNeasy Plus Mini Kit from Qiagen (Hilden, Germany) according to the manufacturer’s instructions. One microgram of RNA was reverse-transcribed using an iScript Reverse Transcription Supermix from Bio-Rad Laboratories (Hercules, CA, USA) to make single-stranded cDNA. The cDNAs were then mixed with Qi SYBR Green Supermix (Bio-Rad) for quantitative RT-PCR assay using a Bio-Rad I-cycler IQ quantitative thermocycler. All PCR samples were prepared in triplicate wells in a 96-well plate. After 40 cycles of PCR, melt curves were examined in order to ensure primer specificity. Fold changes in gene expression were calculated using the ΔΔCt method. Primers used for mouse were as follows: Oaz1 (5′-CCACTGCTTCGCCAGAGAG-3′) and (5′-CCCGGACCCAGGTTACTA-3′), Gli1 (5′- […]-3′ and 5′- GCT GATCCAGCCTAAGGTTCTC-3′), Ptch1 (5′-CCATCGGCGACAAGAACC-3′ and 5′-[…]-3′), Thbs1 (5′-[…]-3′ and 5′-CGGGGATCAGGTTGGCATT-3′), Cryab (5′-[…]-3′ and 5′-[…]-3′), Egr2 (5′-[…]-3′ and 5′-[…]-3′), CTGF (5′-GGGCCTCTTCTGCGATTTC-3′ and 5′-[…]-3′).
Figure 5 Oxy210 acts downstream of Smo. (a) Sufu-/- MEF cells were treated with DMEM containing 5% FBS in the presence or absence of Oxy210. After 72 h, RNA was extracted and analyzed by Q-RT-PCR for the expression of Hh target genes Gli1 and Hip, normalized to Oaz1 expression. […] Luciferase activity was measured and normalized to the Renilla luciferase activity. […]

[2] = tested on: GLI1, GLI2, SHH mRNA in A549 NSCLC cells; experiment: GLI and SHH mRNA expression in A549 cells (Q-RT-PCR); format: cell-based, human
Method: as §1
Primers used for human were as follows: GAPDH (5′- […]-3′ and 5′- […]-3′), SHH (5′- CGGAGCGAGGAAGGGAAAG-3′) and (5′- […]-3′), GLI1 (5′- GAAGCCGAGCCGAGTATC-3′ and 5′-[…]-3′), GLI2 (5′-[…]-3′ and 5′-[…]-3′), Fn-EDA (5′- […]-3′ and 5′- […]-3′), E-Cadherin (5′- […]-3′ and 5′- TCCCAGGCGTAGACCAAGA-3′), SNAIL (5′- […]-3′ and 5′- […]-3′), N-Cadherin (5′- […]-3′ and 5′- […]-3′), Vimentin (5′- […]-3′ and 5′- […]-3′), ZO-1 (5′- […]-3′ and 5′- […]-3′), MMP2 (5′- […]-3′ and 5′- […]-3′), MMP9 (5′-[…]-3′ and 5′-[…]).
(§2) Figure 6 Inhibition of Glis and SHH expression in Non-Small Cell Lung Cancer (NSCLC) cells. A549 (a) and H2030 (b) cells were treated with Oxy210 in RPMI 1640 containing 5% FBS for 72 h, then RNA was extracted and analyzed by Q-RT-PCR for the expression of the indicated genes and normalized to GAPDH expression. (c) A549 cells were pretreated for 2 h with Oxy210 in RPMI 1640 containing 5% FBS. […] After 48 h, RNA was extracted and analyzed by Q-RT-PCR for the expression of Gli1 and Shh and normalized to GAPDH expression. […]

[3] = tested on: GLI1, GLI2 mRNA in H2030 NSCLC cells; experiment: GLI mRNA expression in H2030 cells (Q-RT-PCR); format: cell-based, human; settings: 5 μM, 72 h
Method: Total RNA was extracted with the RNeasy Plus Mini Kit from Qiagen (Hilden, Germany) according to the manufacturer’s instructions. One microgram of RNA was reverse-transcribed using an iScript Reverse Transcription Supermix from Bio-Rad Laboratories (Hercules, CA, USA) to make single-stranded cDNA. The cDNAs were then mixed with Qi SYBR Green Supermix (Bio-Rad) for quantitative RT-PCR assay using a Bio-Rad I-cycler IQ quantitative thermocycler. All PCR samples were prepared in triplicate wells in a 96-well plate. After 40 cycles of PCR, melt curves were examined in order to ensure primer specificity. Fold changes in gene expression were calculated using the ΔΔCt method. […]
as §2, with “expression.” for “expression. (c) A549 cells were pretreated for 2 h with Oxy210 in RPMI 1640 containing 5% FBS.”

A549 cells = experiment: TGFβ-induced drug resistance (carboplatin) assay, cell counting; format: cell-based, human; settings: TGFβ1 ± Oxy210 (5 μM) 3 days, then 20 μM CP 4 days
Method: A549 and H2030 cells cultured in RPMI 1640 containing 5% FBS in 12 well-plates at 20% confluence were treated with Oxy210 for 6 days and then trypsinized, spun down and resuspended in fresh medium. For the Carboplatin (CP) and Oxy210 co-treatment experiments, A549 cells cultured in RPMI 1640 containing 2% FBS in 12 well-plates at 20% confluence were treated with CP at different concentrations in the presence or absence of Oxy210 for 6 days. For the TGFβ-induced drug resistance assay, A549 cells cultured in RPMI 1640 containing 2% FBS in 12 well-plates at 10% confluence were pre-treated with TGFβ1 alone or together with Oxy210 for 3 days, and then treated with 20 μM CP for 4 days. An aliquot of cell suspension was applied to a hemocytometer and the cells were then counted under a light microscope.
Figure 10 Effect of Oxy210 on TGFβ-induced resistance to carboplatin. A549 cells were treated with the agents as indicated (in front of --) in RPMI 1640 containing 2% FBS for 3 days, and then treated with the agents as indicated (after --) for 4 days. The cells were then trypsinized and counted. Data from a representative experiment are reported as the mean of triplicate determinations ± SD (## p < 0.01 vs. Control--Control; ++ p < 0.01 vs. Control--CP; ** p < 0.01 vs. TGFβ--CP).

Liver X Receptor (LXR) = format: cell-based, human
pKa = format: physicochemical; settings: printed in Figure 1, method not stated
From the text: Figure 1 The molecular structures of Cholesterol, Oxy8, Oxy133, Oxy16, Oxy186 and Oxy210. TEXT PRINTED IN THE PICTURE: Oxy210: pKa ~ 5

## C[C@]12CC[C@H]3[C@@H](CC=C4C[C@@H](O)CC[C@@]43C)[C@@H]1CC[C@@H]2[C@](C)(O)CCc1cccnc1 [Oxy210, (3S,8S,9S,10R,13S,14S,17S)-17-((R)-2-hydroxy-4-(pyridin-3-yl)butan-2-yl)-10,13-dimethyl-2,3,4,7,8,9,10,11,12,13,14,15,16,17-tetradecahydro-1H-cyclopenta[a]phenanthren-3-ol]
[1]
  high baseline expression of Hh pathway target genes Gli1 and Hip: significant inhibition
[2]; 5 μM, 72 h
  mRNA expression of GLI1 and GLI2: significantly inhibited
[2]; 72 h
  expression of SHH mRNA: significantly inhibited
[2]; TGFβ 10 ng/mL, 48 h
  expression of GLI1 and SHH mRNA induced by TGFβ: completely inhibited
[3]
  mRNA expression of GLI1 and GLI2: significantly inhibited
A549 cells
  sensitivity to CP after TGFβ1 pre-treatment (TGFβ-induced CP resistance): fully restored CP drug sensitivity
Liver X Receptor (LXR)
  induced expression of SREB1c: lack of induced expression
pKa
  pKa: ~5
